Reference: publication PMC5673865, “Characterization of a beta-glucosidase from Bacillus licheniformis and its effect on bioflocculant degradation” (AMB Express, 2017)

Experiments:
Bgl.bli1 [1] = biological target: T1, Bgl.bli1 (Bacillus licheniformis, UniProt Q65D83); assay: pNPG hydrolysis with added glucose; assay type: biochemical; details: substrate pNPG, called competitive by the authors
T1 construct: gene BL01920; cloning primers encode start MARQTW and end TEEFRYK
T1 sequence (Q65D83 1-478): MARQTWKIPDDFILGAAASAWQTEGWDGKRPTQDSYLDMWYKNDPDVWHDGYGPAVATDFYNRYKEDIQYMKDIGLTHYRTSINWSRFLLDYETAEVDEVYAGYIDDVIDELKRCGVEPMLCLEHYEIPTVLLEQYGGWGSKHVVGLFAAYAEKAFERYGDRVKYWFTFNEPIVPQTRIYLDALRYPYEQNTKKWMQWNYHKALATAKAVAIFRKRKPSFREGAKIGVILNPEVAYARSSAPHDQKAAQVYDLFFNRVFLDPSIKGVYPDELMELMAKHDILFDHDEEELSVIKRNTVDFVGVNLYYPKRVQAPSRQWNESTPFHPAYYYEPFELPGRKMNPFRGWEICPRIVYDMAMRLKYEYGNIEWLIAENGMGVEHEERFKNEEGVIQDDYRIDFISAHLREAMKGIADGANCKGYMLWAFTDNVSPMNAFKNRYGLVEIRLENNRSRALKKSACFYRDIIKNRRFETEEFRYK
From the text: pNPG hydrolysis with added glucose on Bgl.bli1

Bgl.bli1 [2] = biological target: T1, Bgl.bli1; assay: pNPG hydrolysis; assay type: biochemical; details: standard assay, no glucose added

| Relative activity (%) at 10% (w/w) glucose (Bgl.bli1 [1]) | Compound | pNPG hydrolysis (Bgl.bli1 [2]) |
| --- | --- | --- |
| 49.26% | OC[C@H]1OC(O)[C@H](O)[C@@H](O)[C@@H]1O (some centres unmarked) [glucose] |  |
|  | O=[N+]([O-])c1ccc(O[C@@H]2O[C@H](CO)[C@@H](O)[C@H](O)[C@H]2O)cc1 [p-nitrophenyl-β-D-glucopyranoside] | Bgl.bli1 activity was determined by measuring the hydrolysis of p-nitrophenyl-β-D-glucopyranoside (pNPG) |
